“Also recorded” adds a separate entry of the source. Like-named read-outs stand apart in the source and are kept apart here.
How the values were obtained:
antibody affinity site = assay: Protection experiments with nucleotides and nucleosides against [γ^32 P]8-N3 ATP photolabeling; assay type: binding; conditions: data not shown
Procedure: (§1) Antibodies (3 μg) were incubated with 200 μM [γ^32 P]8-N3 ATP (5-30 mCi/μmole) in a final volume of 30 μL for 1 minute and photolyzed with a hand-held UV lamp at 254 nm for 1 min. The reactions were quenched with protein solubilizing mixture (10% SDS, 3.6M urea, 162 mM DTT, Pyronin Y and 20 mM Tris, pH 8.0) and analyzed by 6-14% gradient SDS-PAGE. The gels were stained with Coomassie Brilliant Blue, destained, and dried using a slab gel drier. ^32 P incorporation was detected by autoradiography and quantified by either scanning on an optical Image and Acquisition Analysis (Ambis, Inc.) or by cutting the appropriate band from the gel counting the radioactivity by liquid scintillation counting.
(§2) Antibody S1C5 (Maloney et al, Hybridoma, 4:191-209 (1985)), and 8019 (Koprowsky et al, Somat. Cell. Genet., 5:957-961 (1979)) each (3 μg) were incubated with increasing concentrations of [γ^32 P]8-N3 ATP for 1 min at 4° C. and photolyzed and analyzed as described above. Protection of photolabeling of S1C5 and 8019 was performed by incubating […] of antibodies with increasing concentrations of ATP for 2 min followed by incubation with 200 μM [γ^32 P]8-N3 ATP for 1 min and photolyzed and analyzed as described above. […]

SIC5 antibody [1] = assay: Inhibition by ATP of [γ^32 P]-8-N3 ATP photoincorporation into SIC5 (S1C5) antibody; assay type: binding, murine
Procedure: The SIC5 antibody was again labeled, but in this example labeling was performed in the presence of increasing amounts of free ATP. Specifically,3 μg of the SIC5 antibody was photolyzed in the presence of 200 μm [γ^32 P]-8-N3 ATP using concentrations of ATP ranging from 0 to 700 μm. The labeled protein was again separated by SDS-PAGE; and radioactivity determined by liquid scintillation counting.
as §1
(§3) Antibody S1C5 (Maloney et al, Hybridoma, 4:191-209 (1985)), and 8019 (Koprowsky et al, Somat. Cell. Genet., 5:957-961 (1979)) each (3 μg) were incubated with increasing concentrations of [γ^32 P]8-N3 ATP for 1 min at 4° C. and photolyzed and analyzed as described above. Protection of photolabeling of S1C5 and 8019 was performed by incubating […] of antibodies with increasing concentrations of ATP for 2 min followed by incubation with 200 μM [γ^32 P]8-N3 ATP for 1 min and photolyzed and analyzed as described above. Protection experiments using amino acids were performed by incubating 3 μg of S1C5 antibody with increasing concentrations of amino acids for 2 min, followed by incubation with 200 μM [γ^32 P]8-N3 ATP for 1 min. Photolysis and analysis were performed as described.

8019 antibody [2] = assay: Inhibition by ATP of [γ^32 P]8-N3 ATP photolabeling of 8019 antibody; assay type: binding; conditions: 8019, 200 μM [γ^32 P]8-N3 ATP, in words
Procedure: as §1, §2

SIC5 antibody [3] = assay: Photolabeling saturation of SIC5 (S1C5) antibody with [γ^32 P]-8-N3 ATP; assay type: binding, murine
Procedure: In particular, 3 μg of SIC5 antibody in […] of photolysis buffer was photolyzed with increasing concentrations of [γ^32 P]-8-N3 ATP and then separated by SDS-PAGE. ^32 P incorporation was detected by autoradiography and quantified by scanning on Optical Imaging Acquisition Analysis (Ambis, Inc.). Photoincorporation was quantitatively confirmed by cutting the appropriate band and determining radioactivity by liquid scintillation counting. […] It can further be seen that there is a defined saturating concentration of probe at about 200 μm for both chains. This saturation plateau provides strong evidence that there exists a unique and limited number of affinity sites of the antibody which are bound by the [γ^32 P]-8-N3 ATP compound.
as §1, §3

8019 antibody [4] = assay: Photolabeling saturation of 8019 antibody with [γ^32 P]8-N3 ATP; assay type: binding; conditions: 8019, Example 10
Procedure: as §1, §2

S1C5 antibody [5] = assay: Quantitative immuno-precipitation of [γ^32 P]8-N3 ATP labeled S1C5 (stoichiometry); assay type: binding, murine; conditions: triplicate experiments
Excerpt: Amino acid sequence of S1C5 and 8019 were deduced from the cloned and sequenced V genes (FIG. 12c). The identified peptides from photoaffinity labeling corresponded to sequences located in the variable Ig domain. The peptides eluted first (T1) from each antibody are derived from the CDR1 domain of the variable light chain extending into FR2. The second eluted peptides (T2) are from the CDR3-FR4 region of the variable heavy chain domain. It is striking that both peptides included invariant aromatic residues, Trp H103 in the VH domain and the highly conserved Tyr L36 within the VL domain.

S1C5 antibody [6] = assay: Protection of S1C5 photolabeling by amino acids; assay type: binding, murine; conditions: 200 μM [γ^32 P]8-N3 ATP
Procedure: as §1, §2

38C13 tumor cells = assay: FACS of biotinylated 8-azidoadenosine labeled S1C5; assay type: cell-based, murine; conditions: biotinylated 8-N3 adenosine modified antibody
Procedure: (§4) Tumor cells (38C13 and LS174T, 1×10^6) were incubated with biotinylated 8-azidoadenosine labeled antibody S1C5 or 8019 (manuscript submitted) for 60 min. on ice. After washing with 5% FCS/PBS, Neutralite Avidin-FITC (Southern Biotechnology Associates, Inc.) was added and incubated for 30 min., fixed and subjected to flow cytometry. FACS data were generated front a minimum of 9900 cells per sample.
(§5) To determine whether the modification of this site affects antigen recognition the binding of photolabeled S1C5 (IgG2a, κ) and 8019 (IgG1, κ) to their respective antigens was tested, S1C5 is specific for a murine B-cell tumor idiotype 38C13 (13) and 8019 recognizes the CEA antigen (Koprowsky et al, Somat. Cell. Genet., 5:957-961 (1979)), expressed by the LS17T4 tumor cell line. […] Also, these same antibodies were photomodified with biotinylated 8-N3 adenosine and used in FACS. […] A comparison of the photoaffinity biotinylated antibodies with conventionally biotinylated antibodies in FACS produced nearly identical staining (manuscript submitted).

[7] = test system: murine B-cell tumor idiotype 38C13; assay: Competition of γ^32 P-labeled S1C5 binding to its cellular target by unlabeled antibody; assay type: cell-based; conditions: 38C13, data not shown
Procedure: as §5

LS174T tumor cells = assay: FACS of biotinylated 8-azidoadenosine labeled 8019; assay type: cell-based; conditions: biotinylated 8-N3 adenosine modified antibody
Procedure: as §4, §5

[8] = test system: CEA antigen, LS174T tumor cells; assay: Competition of γ^32 P-labeled 8019 binding to its cellular target by unlabeled antibody; assay type: cell-based; conditions: data not shown
Procedure: as §5

[N-]=[N+]=Nc1nc2c(N)ncnc2n1[C@@H]1O[C@H](CO)[C@@H](O)[C@H]1O [8-azidoadenosine]
binding relative to 8-N3 ATP (antibody affinity site): tighter binding than 8-N3 ATP

Nc1ncnc2c1ncn2[C@@H]1O[C@H](COP(=O)(O)OP(=O)(O)OP(=O)(O)O)[C@@H](O)[C@H]1O [ATP]
IC50 (SIC5 antibody [1]; 200 μm [γ^32 P]-8-N3 ATP, ATP 0 to 700 μm, Example 2, read-out: ATP concentration for 50% inhibition of labeling): ~350 µM
IC50 (SIC5 antibody [1]; ATP vs [γ^32 P]-8-N3 ATP, FIG. 2 legend, read-out: 50% inhibition of photoincorporation): ~350 µM
protection against photolabeling by ATP (SIC5 antibody [1]; S1C5, 200 μM [γ^32 P]8-N3 ATP, in words): Photolabeling could be prevented; also recorded: photolabeling is inhibited by ATP
protection against photolabeling by ATP (8019 antibody [2]): Photolabeling could be prevented; also recorded: photolabeling is inhibited by ATP

[N-]=[N+]=Nc1nc2c(N)ncnc2n1[C@@H]1O[C@H](COP(=O)(O)OP(=O)(O)O[32P](=O)(O)O)[C@@H](O)[C@H]1O [[γ^32 P]-8-N3 ATP]
saturation of photolabeling (SIC5 antibody [3]; S1C5, Example 10): 150 to 175 µM
Kd (SIC5 antibody [3]; S1C5, Example 10, read-out: apparent Kd): 75 µM
saturating concentration of probe (SIC5 antibody [3]; [γ^32 P]-8-N3 ATP, both heavy and light chains, Example 1): about 200 μm
photoincorporation into heavy and light chains (SIC5 antibody [3]; in words, Example 1): covalently attaching to both antibody heavy and light chains; also recorded: covalently attached to both heavy and light chains
saturation of photolabeling (8019 antibody [4]): about 50 μM
Kd (8019 antibody [4]; read-out: apparent Kd): 25 µM
average number of molecules of 8-N3 ATP/Ig molecule (S1C5 antibody [5]): 1.9±0.2 molecules of 8-N3 ATP/Ig molecule

N[C@@H](Cc1c[nH]c2ccccc12)C(=O)O [tryptophan]
protection against photolabeling by amino acids (S1C5 antibody [6]): best protection

B1: S1C5: anti-B cell lymphoma idiotype antibody; specific for a murine B-cell tumor idiotype 38C13 (protein)
chain: QIVLTQSPAINSASLGERVTMTCTASSSVSSSYFHWYQQKQGSSPKLWIYTTSNLASGVPARFSGSGSGTSYSLTISSMEAEDAATYYCHQYHRSPLTFGAGTKLELKRAQVQLQQSDAILVKPGASVKISCKASGYTFTDHVIHWVKQRPEQLGEWIGFISPGNGDIRYNEKFKDKATADKSSSTAYMQLNSLTSEDSAVYFCKRSFYYYDDNYGDYWGQGTTLTVSSAK
modifications: photoaffinity label in the variable domains as tested: biotinylated 8-azidoadenosine (FACS) or [gamma-32P]8-N3ATP (cell binding competition); labelled residue not fixed
notes: anti-B cell lymphoma idiotype antibody; specific for a murine B-cell tumor idiotype 38C13
binding to tumor cell targets by flow cytometry (38C13 tumor cells): recognized their specific tumor cell targets
inhibition of γ^32 P-labeled antibody binding by unlabeled antibody [7]: inhibited on an apparent 1:1 ratio by unlabeled antibodies

B2: 8019: IgG1, κ antibody; recognizes the CEA antigen expressed by the LS17T4 tumor cell line (protein)
chain: DIVLTQSPASLSASVGETVTITCRASENIYSYLLWYQQKQGKSPQLLVYNAKTLAEGVPSRFSGSGSGTQFSLKINSLQPEDFGSYFCQHHFGTPWTFGGGTSLEIKRAEVNLEESGGGLVQPGGSMKLSCAASGFTESDAWMDWVRQSPEKGLEWVAEIRTKVNNHATYYAESVKGRFTISRDDSKSNVYLQMNSLRVEDTGIYYCTMAYYEAYWGQGTLVTSAAK
modifications: photoaffinity label in the variable domains as tested: biotinylated 8-azidoadenosine (FACS) or [gamma-32P]8-N3ATP (cell binding competition); labelled residue not fixed
notes: IgG1, κ antibody; recognizes the CEA antigen expressed by the LS17T4 tumor cell line
binding to tumor cell targets by flow cytometry (LS174T tumor cells): recognized their specific tumor cell targets
inhibition of γ^32 P-labeled antibody binding by unlabeled antibody [8]: inhibited on an apparent 1:1 ratio by unlabeled antibodies

— patent US5800991A, “Nucleotide or nucleoside photoaffinity compound modified antibodies, methods for their manufacture and use thereof as diagnostics and therapeutics” (University of Kentucky Research Foundation, priority 1996, dated 1998)
